Consider 10 compounds from US20220098146A1, “REVERSIBLE IMINE UV-ABSORBERS” (The United States of America, as represented by the …, priority 2020, published 2022).

In brackets after ≈: the same amount, converted by molar mass.

One data set concerns Silver ide. As to conditions: cited from earlier work.
A further data set deals with Rat. As to conditions: cited from earlier work.
Another data set concerns Fathead minnow. As to conditions: cited from earlier work.
Data set [1] is described as follows: in vitro SPF and critical wavelength by UV spectroscopy and Mansur equation. It is filed as physicochemical. As to the method:
General procedure for determining in vitro SPF and critical wavelength: This method was adapted from Dutra, et al. (Dutra, E. A., et al., Brazilian Journal of Pharmaceutical Sciences, 3: 381-385 (2004)). First, 1.0 gram of sunscreen was placed in 100 mL flask and filled to volume with ethanol. The solution was mixed and filtered through cotton. 1.0 mL of the filtered solution was added to a 50 mL volumetric flask and the flask was filled to volume with ethanol. This final solution (˜0.02% of initial sunscreen) was placed in a 1 cm polystyrene cuvette and UV/Vis spectrum was recorded from 290 to 400 nm, every 5 nm, using a UV/Vis spectrophotometer (Molecular Devices Spectramax M2 UV-Vis Spectrophotometer) with ethanol as a reference . Next, the Mansur equation was applied (Mansur, J. S., et al., An Bras Dermatol., 61: 121-124 (1986)):
where EE (λ)=erythemal effect spectrum; I(λ)=solar intensity spectrum; abs (λ)=absorbance of sunscreen product; CF—correction factor (=10). The values of EE×I are constants determined by Sayre et al. (Photochemistry and Photobiology, 29(3): 559-566 (1979)) so that a standard sunscreen formulation containing 8% homosalate presents an SPF value of 4. The critical wavelength was determined as the wavelength at which 90% of the total absorbance from 290-400 nm occurred. […]

Data set [2] relates to skin of the intrascapular regions of the back. Description: Human repeat insult patch testing (RIPT) for skin irritation and skin sensitization. The format is in vivo. As to the method: S2: Repeat Insult Patch Testing (RIPT) Procedure and Results: Human repeat insult patch testing for skin irritation and skin sensitization evaluations, including standard patient consent procedures and oversight, which were obtained after the nature and possible consequences of the study were explained, were conducted by BioScreen Testing Services, Inc. (Torrance, Calif.). Fifty-two volunteers were recruited, provided informed consent prior to initiating, and completed the study (ages 20-59, 10 male, 42 female, all with Fitzpatrick Skin Type 3—burn moderately, tan progressively). Approximately 0.02-0.05 mL of commercial formula (Daily Shower spray cleaner containing 0.2 or 1.0% cuminaldehyde aminoguanidine (CuminAG), pH 5.5-5.9; diluted 3% in DI water) was dispensed on a 7.5 mm paper disk or Rayon/polypropylene patch, which were then affixed to the skin of the intrascapular regions of the back. Subjects were instructed not to wet or expose the test area to sunlight. Patches were kept in place for 48 h after the first application, and 24 h after subsequent applications. This procedure was repeated until nine consecutive 24 h exposures had been made three times a week for three consecutive weeks. Test sites were evaluated by a trained laboratory personnel before each reapplication. After a 10-14 day rest period, a challenge dose was applied once to a previously unexposed test site, which was evaluated by a trained personnel after 48 and 96 h. The International Contact Dermatitis Research Group scoring scale was used: 0=no reaction, 1=erythema throughout at least ¾ of patch area, 2=erythema and induration throughout at least ¾ of patch area, 3=erythema, induration and vesicles, 4=erythema, induration and bullae.

Data set [3] is described as follows: Calculation of skin permeation coefficient using Modified Potts and Guy Model. Particulars: ratio of calculated skin permeation coefficient to that of octinoxate. The text has this:
S1: Calculation of Skin Permeation using Modified Potts and Guy Model: The Modified Potts and Guy Model is a validated method for calculating the skin permeation coefficient (Kp) of a compound in cm/hr (Wilschut et al. 1995; Guy and Potts 1993). It relies on two inputs—the octanol-water partition coefficient, (Kow, indicative of hydrophobicity), and the molecular weight of the compound as follows:
Using the Modified Potts and Guy Model, we calculated the skin permeation coefficient (Kp) of aminoguanidine and aldehyde subcomponents. This scenario represents the skin permeation of our compounds after dissociation. In order to probe skin permeation of the assembled guanyl hydrazones, which don't have published Kow's, we calculated Kp's of structurally similar molecules, robenidine and guanabenz. This scenario represents the application of our UV-absorbers directly to the skin via topical products. Lastly, we calculated the Kp of octinoxate for comparison. Based on these theoretical values, our compounds should have a much lower skin permeation potential than octinoxate and other commercial UV-absorbers.

Data set [4] is described as follows: film leaching in DI or sea water with anion pairing. It is filed as physicochemical. Here is the method: General protocol to assess film leaching: To a polyethylene square (1 cm by 1 cm, cut from a Ziploc® bag) 10 μL of a concentrated solution (˜5 wt % in EtOH) of imine was applied and allowed to dry at room temperature (10-20 min) before a concentrated solution of the anion (e.g., sodium lauryl sulfate, sodium cocoyl glutamate, sodium carbonate) to be tested (˜5 wt %) was co-applied and again allowed to dry on the film surface. The film sample was placed inside a 1.5 mL plastic tube containing 1 mL of DI or sea water (sourced from San Francisco Bay, Albany, Calif.) and after a set time (10 min), analyzed for the presence of soluble imine, which was quantified as a percentage of total sample that was originally present on the film (FIG. 6).
As an additional feature, reversible UV-absorbers (e.g., aminoguanidine-aldehyde condensation products) can be paired with anions (e.g., that associate with the cation at typical use levels, e.g., 0.1-10 wt %) to manipulate solubility characteristics. This can greatly reduce water solubility to produce a waterproof sunscreen without relying on increased hydrophobicity of the active agent which is related to increased skin penetration (Wilschut, A., et al., Chemosphere, 30: 1275-1296 (1995); Guy, R. H., and R. O. Potts. American Journal of Industrial Medicine, 23(5): 711-719 (1993))).

Data set [5] can be described thus: UV absorbance spectroscopy versus subcomponents. The format is physicochemical. Particulars: versus diaminoguanidine and cinnamaldehyde; UVB and UVA regions. An excerpt: We determined the UV absorbing capacity of guanyl hydrazones in comparison to their aminoguanidine and aldehyde subcomponents. We prepared cinnamaldehyde diaminoguanidine (CinDAG) by reacting its subcomponents, diaminoguanidine and cinnamaldehyde, in a molar ratio of 1:2.

For `COc1ccc(C=O)cc1` [Anisaldehyde], the “LC50 (mg/L) Fish” value in the data set on Silver ide is 215 mg/L (≈ 1580 µM). In the data set with Rat, the “LD50 (mg/kg) Rat, oral” value is 1510 mg/kg.

Regarding `O=Cc1ccccc1` [Benzaldehyde], the “LC50 (mg/L) Fish” value with Fathead minnow is recorded as 12.4 mg/L (≈ 117 µM). For the same compound, in the data set with Rat, the “LD50 (mg/kg) Rat, oral” value is reported as 1300 mg/kg.

For `NC(N)=NN=CC=Cc1ccccc1` [CinAG, cinnamaldehyde aminoguanidine], in data set [1] (concentration of 1% in formula), the “in vitro SPF improvement over octinoxate” value was 155%.

Consider `O=CC=Cc1ccccc1` [Cinnamaldehyde], for which the “LC50 (mg/L) Fish” value with Fathead minnow was 105.8 mg/L (≈ 801 µM). Also, the “LD50 (mg/kg) Rat, oral” value in the data set with Rat is recorded as 3350 mg/kg.

For `CC(C)c1ccc(C=NN=C(N)N)cc1` [CuminAG, cuminaldehyde aminoguanidine], the “adverse reactions in RIPT” value in data set [2] (Daily Shower spray cleaner containing 0.2 or 1.0% CuminAG, pH 5.5-5.9, diluted 3% in DI water, 52 volunteers, induction and challenge) is “no adverse reactions of any kind”.

On to `CC(C)c1ccc(C=O)cc1` [Cuminaldehyde], for which the “LC50 (mg/L) Fish” value in the data set with Fathead minnow is 6.62 mg/L (≈ 44.7 µM). Moreover, in the data set with Rat, the “LD50 (mg/kg) Rat, oral” value was 1390 mg/kg.

Take `N/N=C(\N)NN` [Diaminoguanidine]: in data set [3], the Kp/Kp octinoxate was 0.0001.

For `CCCCC(CC)COC(=O)C=Cc1ccc(OC)cc1` (stereo not drawn) [Octinoxate, reference compound], in data set [3], the Kp/Kp octinoxate is recorded as 1.0000.

For `CCCCCCCCCCCCOS(=O)(=O)[O-].[Na+]` [sodium lauryl sulfate], the “subjects with Grade 1 reaction in RIPT” value in data set [2] (positive control, 2.0% solution, ICDRG scale, 1=erythema throughout at least 3/4 of patch area) is given as “Four”. The “subjects with Grade 2 reaction in RIPT” value in data set [2] (positive control, 2.0% solution, ICDRG scale, 2=erythema and induration throughout at least 3/4 of patch area) is “two”.

For the compound “cinnamaldehyde diaminoguanidine [CinDAG]”, the critical wavelength entry in data set [1] (wavelength at which 90% of total absorbance from 290-400 nm occurred) is “high critical wavelength”. Moreover, in data set [4] (blend with sodium cocoyl glutamate), the “water resistance of the blend” value was “comparable to that of octinoxate”. In addition, the “solubility (leaching off film) on anion pairing” value in data set [4] (sodium cocoyl glutamate added, fresh and salt water, 10 min) was “decreased solubility in both fresh and salt water”. For the same compound, the “UV-absorbing capacity compared to subcomponents” value in data set [5] is “significantly more UV-absorbing capacity than its subcomponents”.
